From patent US20070049538A1, “METHODS FOR USING CUCURBITACIN COMPOUNDS” (SOUTH DAKOTA STATE UNIVERSITY, priority 2005, published 2007)
Read-outs that look alike come from different tables or passages of the source.

Legend:
[1] = Chromatographic hydrophobicity index (CHI) by RP-HPLC in buffered acetonitrile; format: physicochemical; parameters: key: CHI = φ0 (isocratic hydrophobicity index), = A·tR + B; ACN % scale; settings: for CHIACN (b): standard compounds, isochratic and gradient elution of standard mixture; for CHIACN1: buffered acetonitrile pH 7.0, Alltima C18 250 mm, Eq. (2) from isocratic φ0; for CHIACN2: buffered acetonitrile pH 7.0, Eq. (3) calibrated against published CHI
Experimental: (§1) We used Dynamax liquid chromatograph (Varian Chromatography Systems) with PDA-2 photodiode array UV detector, controlled by the Dynamax PC Chromatography Data System (v. 1.9) software and Dynamax dual pump solvent delivery system, model SD-200. […] Cucurbitacins analytical separation was optimized on Alltima C18 (Alltech; 250 mm×4.6 mm, 5 μm) HPLC column, at gradient elution in acetonitrile (ACN, 30-70% ACN in 57 min), and in MeOH (60-75% MeOH in 50 min). Cucurbitacins stock concentration of 10^−2M in DMSO:ethanol (1:1) was standardized against pure cucurbitacin I (Indofine Chemical Company, Hillsborough, N.J.) by analytical HPLC means. Compounds CHI was measured in both ACN, by using Alltima C18 column, and in MeOH, by using Econosil C18 column (Alltech; 150 mm×4.6 mm, 5 μm). Analytical separations were conducted at a flow rate of 1 ml/min. The aqueous phase was buffered for the CHI measurement. For this purpose, solid ammonium acetate (Fisher Sci. Co., Fair Lawn, N.J.) was dissolved in deionized distilled water at 50 mM final concentration and its pH adjusted to 7.0.
All standard compounds were purchased from Acros (Acros Organics, NJ). The chromatographic lipophilicity or hydrophobicity was determined applying Valkó's technique (Valkó et al., Anal. Chem. 69 (1997) 2022, the entire disclosure of which is herein incorporated by reference). A standard mixture of seven compounds was prepared in solution: theophylline (compound 19), benzimidazole (compound 20), acetophenone (compound 21), indole (compound 22), propiophenone (compound 23), butyrophenone (compound 24), and valerophenone (compound 25). […] The retention factor, log k=log((tR-t0)/t0), was calculated for each analyte from five good injections of […] sample. The dead time (t0) was measured by injecting NaNO3 together with the sample. Then, the log k values were plotted against isocratic ACN concentrations to establish the linear regression equations for each analyte. From each straight line the isocratic hydrophobicity index was computed, φ0=(intercept/slope). Further, the calibration mixture was injected at fast gradient elution, 0-22 min 0-100% ACN, and three additional minutes at 100% ACN. The φ0 values for the test compounds were plotted against gradient retention time and the linear equation determined from the following equation: φ0=CHI=AtR+B (1)
The gradient elution conditions were similar to the one from the first approach.
(§2) Cucurbitacins lipophilicity was measured by RP-HPLC. […] Due to its high viscosity, aqueous MeOH required a shorter column than the one applied for ACN. First, the C18 columns were calibrated against a standard mixture, and the relationships established between the fast gradient tR and φ0 or published CHI (see Eqs. (2)-(4) from Table 2). Second, cucurbitacins were injected at fast gradient elution under similar conditions, and their CHI calculated (Table 4) from Eqs. (2)-(4). Eqs.

[2] = Chromatographic hydrophobicity index (CHI) by RP-HPLC in buffered methanol; format: physicochemical; settings: for CHIMeOH (b): standard compounds, isochratic and gradient elution of standard mixture; for CHIMeOH: buffered methanol pH 7.0, Econosil C18 150 mm, Eq. (4)
Experimental: as §1
A standard mixture of 10 compounds including 19-21, 23-27, aniline (compound 28) and bromobenzene (compound 29), dissolved in MeOH, was injected at five isochratic elution, at 40, 45, 50, 55, and 60% MeOH. Then the mixture was injected at fast gradient elution to establish the correlation from Eq. (1). The fast linear gradient elution was optimized for 30-100% MeOH in aqueous buffer with 10 min runtime.
as §2

[3] = standard compounds; gradient elution and correlation with published data; cited from earlier work
[4] = system: HepG2 cells; experiment: Cucurbitacins cytotoxicity on HepG2 cells (MTT viability assay); format: cell-based, human
Experimental: HepG2 (human hepatocellular carcinoma, ATCC) cells were grown in EMEM (Gibco, Grand Island, N.Y.) supplemented with 10% fetal bovine serum (FBS), and 1% penicillin/fungizone mixture (Gibco). Thabrew's optimized procedure (Thabrew et al., J. Pharm. Pharmcol. 49 (1994) 1442, the entire disclosure of which is herein incorporated by reference) was followed. Cells were batch cultured for 10 days, then seeded at concentration of 30,000 cells/well in fresh media in 96-well microtiter plastic plates at 37° C. for a day. Then cells were exposed to different concentrations of cucurbitacins at final volume of 100 μl/well. Five-fold serial dilution of compounds was carried out in the plate for five consecutive wells. After 24 h of incubation with chemicals, live cells were visualized using the MTT viability assay (Promega, Madison, Wis.). The absorbance was measured at 570 nm. Negative (without cells) and positive (without test chemicals) controls were also incubated with each plate. […] At least three reproducible experiments were performed per compound with three replicate wells per concentration.
Cells were challenged with cu-curbitacins at various concentrations for a day and then live cells quantified with MTT dye. This period of time measures exclusively compounds cytotoxicity, while longer incubation time may lead to interference from metabolites.

[5] = system: HepG2 cells; experiment: cells
From the text: Experimental conditions were standardized on silybin. […]
The ratio of IC50-to-EC50 (hereafter T/A) is also indicated in this table, which gives the margin between toxic and cytoprotective concentrations.

[6] = system: HSC-T6 cells; experiment: Serum-driven HSC-T6 proliferation, experiment 1 (4 h challenge, two days drug-free growth); format: cell-based, rat; settings: for EC50: HSC-T6, 4 h challenge, then two days drug-free media
Experimental: The proliferation effect of serum on HSC-T6 cells was optimized and cucurbitacin antiproliferative activity was measured. Serum contains a large number of growth factors, hormones and other nutrients, which help cells to grow and multiply. Several trials were conducted. In experiment 1, cells were challenged with cucurbitacin analogs for 4 h and then cells were grown in drug-free media for two additional days.
HSC-T6 cells were photographed under phase-contrast microscope to record possible changes in cell morphology during experiment 1. […] We are monitoring specifically the effect of compound on the cells, cell recovery after 4 h challenge, and relative cell proliferation. […] Live cells are quantified at the end of the assay (row 4) with MTT dye.
(§3) We established several experimental conditions such as 4 hours of incubation time with cucurbitacin, and 2 day cell incubation with fresh media after challenging with cucurbitacin (Exp. 1). Other experiments involved addition of cucurbitacin for 24 hours over starved cells (Exp. 2) vs. proliferating cells (Exp. 3), and one day incubation of cells with fresh media after challenge. […] Because of that, the challenge time was increased to 24 hours (Exp. 2 and 3).
We modified this approach. Our assay included a second control (ZC) supplemented with no serum intended to measure cucurbitacin anti-proliferation effect relative to the number of cells generated during challenge instead of the total number of cells present in each well.

[7] = system: HSC-T6 cells; experiment: Serum-driven HSC-T6 proliferation, experiment 3 (24 h, proliferating cells); format: cell-based, rat; settings: HSC-T6, 24 h, read-out: Experiment 3 EC50 (A)
Experimental: (§4) To overcome this problem, the amount of incubation time was increased to 24 h, and cucurbitacin activity measured on starved (Exp. 2) or proliferative (Exp. 3) cells (Table 8). Cells turned quiescent when serum was not supplemented for one day (Exp. 2). Activity of a few compounds was monitored on quiescent cells, and their activity compared to the ones measured on proliferating cells (Exp. 3).
as §3, with “challenge. The 4 hour incubation period with cucurbitacin triggered anti-proliferation effect. This effect, however, was hindered by a second cycle of cell proliferation during the two-day cell growth period (see silybin, E and I glucosides, and for I-nPr).” for “challenge.”
(§5) In experiment 3, only 40% of the cells divided. The ratio of EC50 values for exp. 2 and exp. 3 varied between 3.6 and 12.7. This may indicate differential cytotoxicity of silybin and cucurbitacin analogs over quiescent and active stellate cells. In other words, compounds show higher anti-proliferative activity on active cells than on quiescent cells.

[8] = system: HSC-T6 cells; experiment: Cytotoxicity on HSC-T6 cells (experiment 3); format: cell-based, rat; settings: for IC50: read-out: Experiment 3 IC50 (T)
From the text: Cytotoxicity of all cucurbitacin analogs was additionally measured in experiment 3 (Table 8).

[9] = system: HSC-T6 cells; experiment: Serum-driven HSC-T6 proliferation, experiment 2 (24 h, starved/quiescent cells); format: cell-based, rat; settings: Rattus norvegicus, HSC-T6, 24 h, read-out: Experiment 2 EC50
Experimental: as §4
as §3, with “challenge. The 4 hour incubation period with cucurbitacin triggered anti-proliferation effect. This effect, however, was hindered by a second cycle of cell proliferation during the two-day cell growth period (see silybin, E and I glucosides, and for I-nPr).” for “challenge.”
as §5

CC(=O)c1ccccc1 [Acetophenone (21), acetophenone, reference compound]
CHIACN (b) [1]: 61.93 ± 0.05 | CHIMeOH (b) [2]: 52.47 ± 0.05 | CHIACN (c) [3]: 64.90

c1ccc2[nH]cnc2c1 [Benzimidazole (20), benzimidazole, reference compound]
CHIACN (b) [1]: 43.18 ± 0.12 | CHIMeOH (b) [2]: 41.07 ± 0.04 | CHIACN (c) [3]: 30.71

CCCC(=O)c1ccccc1 [Butyrophenone (24), butyrophenone, reference compound]
CHIACN (b) [1]: 79.32 ± 0.14 | CHIMeOH (b) [2]: 66.79 ± 0.05 | CHIACN (c) [3]: 88.49

COc1cc2c(c(OC)c1OC)-c1ccc(OC)c(=O)cc1[C@@H](NC(C)=O)CC2 [Colchicine (26), colchicine, reference compound]
CHIMeOH (b) [2]: 57.56 + 0.04 | CHIACN (c) [3]: 41.37

CC(C)OC1=CC2C(=CCC3C2(C)C(=O)CC2(C)C(C(C)(O)C(=O)C=CC(C)(C)O)C(O)CC32C)C(C)(C)C1=O (stereo not shown) [I-iPr]
IC50 ([4]; Table 4, 24 h incubation, MTT): 7 ± 1 µM | IC50 ([4]; Table 5): 7.3 ± 0.6 µM | CHIACN1 [1]: 73.87 | CHIACN2 [1]: 79.94 | CHIMeOH [2]: 71.55 | cytoprotection on HepG2 cells ([5]; at 6.25% of IC50, against CCl4): −17.10 ± 1.54 | cytoprotection on HepG2 cells ([5]; at 12.5% of IC50, against CCl4): 4.15 ± 0.48 | cytoprotection on HepG2 cells ([5]; at 20% of IC50, against CCl4): 18.69 ± 0.13 | cytoprotection on HepG2 cells ([5]; at 50% of IC50, against CCl4): 41.73 ± 2.06 | EC50 [6]: 3850 nM | EC50 ([7]; proliferating cells): 250 nM | IC50 [8]: 2.5 µM

c1ccc2[nH]ccc2c1 [Indole (22), indole, reference compound]
CHIACN (b) [1]: 67.73 + 0.13 | CHIACN (c) [3]: 69.15

Cn1c(=O)c2nc(-c3ccccc3)[nH]c2n(C)c1=O [Ph-theophylline (27), phenyltheophylline, reference compound]
CHIMeOH (b) [2]: 61.61 ± 0.04 | CHIACN (c) [3]: 52.04

CCC(=O)c1ccccc1 [Propiophenone (23), propiophenone, reference compound]
CHIACN (b) [1]: 71.72 + 0.15 | CHIMeOH (b) [2]: 60.41 + 0.04 | CHIACN (c) [3]: 78.41

COc1cc(C2Oc3cc([C@H]4Oc5cc(O)cc(O)c5C(=O)[C@@H]4O)ccc3OC2CO)ccc1O (stereo partly shown) [Silybin, reference compound]
cell growth with compound alone ([5]; HepG2, 14 to 200 μM, absence of CCl4): up to 125% | concentration giving complete protection from CCl4 ([5]; HepG2, CCl4 4.5×10^−3 M): higher than 100 μM | EC50 ([5]; Homo sapiens, HepG2, read-out: EC50 cytoprotection): 45 µM | cytoprotection attained ([5]; text b199): 100% | Experiment 1 anti-proliferation activity reached ([6]; EC50 could not be estimated): < 50% | Experiment 1 anti-proliferation activity ([6]; measured at 100 μM): ˜20%^a^ | EC50 [9]: 68 µM | EC50 ([7]; Rattus norvegicus): 18800 nM | Experiment 3 IC50 (T) [8]: non toxic

Cn1c(=O)c2[nH]cnc2n(C)c1=O [Theophylline (19), theophylline, reference compound]
CHIACN (b) [1]: 32.63 ± 0.07 | CHIMeOH (b) [2]: 25.76 ± 0.05 | CHIACN (c) [3]: 15.76

CCCCC(=O)c1ccccc1 [Valerophenone (25), valerophenone, reference compound]
CHIACN (b) [1]: 86.66 ± 0.08 | CHIMeOH (b) [2]: 73.05 + 0.12 | CHIACN (c) [3]: 97.67

CC(C)(O)/C=C/C(=O)C(C)(O)C1C(O)CC2(C)C3CC=C4C(CC(=O)C(O)C4(C)C)C3(C)C(=O)CC12C (stereo not shown) [iso-D]
IC50 ([4]; Table 4, 24 h incubation, MTT): 80.3 µM | IC50 ([4]; Table 5): 80.3 ± 3.5 µM | IC50 ([4]; Table 7): 80.3 µM | CHIACN1 [1]: 60.59 | CHIACN2 [1]: 59.37 | CHIMeOH [2]: 62.27 | EC50 ([5]; read-out: EC50 cytoprotection, Table 7, HepG2 against CCl4 toxicity, estimated): 13.8 µM | EC50 [6]: 2130 nM | EC50 ([7]; proliferating cells): 60 nM | IC50 [8]: 8.7 µM
